Laboratory results published in patent publication US10246456B2, “IRAK4 inhibiting agents” (BIOGEN MA INC., priority 2014, dated 2019).

Tests used:
IRAK4 = IRAK4 (Homo sapiens (Human), UniProt Q9NWZ3); assay: IRAK-4 AlphaScreen biochemical kinase assay; conditions: 1 nM IRAK4, 1 mM ATP, 3.5 h at RT
Procedure, shortened: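 AlphaScreen read-out: streptavidin beads bind the biotinylated peptide and protein A beads bind the anti-phosphothreonine antibody, so energy transfer reports phosphorylation of the peptide. The kinase is human IRAK-4.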

IL-6 in A549 cells = assay: Cell-based IL-6 ELISA assay in IL-1beta stimulated A549 cells; conditions: 2 ng/ml human IL-1beta overnight
Description: The cell-based assays is based on IL-6 ELISA quantification. Briefly, A549 cells are cultured in DMEM with 10% FBS medium. When cells reach 80% confluence they are trypsin treated and seeded 180 ul/well in 96-well plate at 2.5×10^4 cells/well. Then, 20 ul of compound serial dilutions (starting at 10 uM, 10 points) are added to the cell plate; incubate for 30 min at 37 C and stimulated with 2 ng/ml human IL-1beta 37 C, 5% CO2 overnight. The next day 100 ul of cell supernatant per well are analyzed on a Human IL-6 Quantikine ELISA kit from R&D Systems.

Sequence of IRAK4 (Q9NWZ3 whole entry, species assumed): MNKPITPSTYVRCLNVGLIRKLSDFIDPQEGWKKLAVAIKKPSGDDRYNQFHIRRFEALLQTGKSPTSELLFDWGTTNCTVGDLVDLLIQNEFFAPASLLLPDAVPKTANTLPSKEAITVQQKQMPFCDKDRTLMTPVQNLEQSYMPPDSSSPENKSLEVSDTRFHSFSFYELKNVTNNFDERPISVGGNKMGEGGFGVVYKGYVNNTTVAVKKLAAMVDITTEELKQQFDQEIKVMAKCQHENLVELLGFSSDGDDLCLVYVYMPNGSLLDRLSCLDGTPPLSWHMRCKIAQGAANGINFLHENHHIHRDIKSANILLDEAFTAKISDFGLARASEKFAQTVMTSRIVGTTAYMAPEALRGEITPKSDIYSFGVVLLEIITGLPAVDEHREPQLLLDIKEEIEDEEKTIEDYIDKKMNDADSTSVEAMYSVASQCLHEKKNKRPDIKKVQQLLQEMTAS

Row | IC50 (IRAK4) | EC50 (IL-6 in A549 cells) | Structure (SMILES)
1 | < 100 nM | ≤ 1000 nM | CCOc1cc(-c2cccc([C@@H](N)C3CC3)n2)cc2c1cnn2-c1cncc(CO)n1 [Example 501, (S)-(6-(6-(6-(amino(cyclopropyl)methyl)pyridin-2-yl)-4-ethoxy-1H-indazol-1-yl)pyrazin-2-yl)methanol]
2 | < 100 nM | ≤ 1000 nM | CCC[C@H](N)c1cccc(-c2cc(OCC)c3cnn(-c4nccc(C(F)(F)F)n4)c3c2)n1 [Example 505, (S)-1-(6-(4-ethoxy-1-(4-(trifluoromethyl)pyrimidin-2-yl)-1H-indazol-6-yl)pyridin-2-yl)butan-1-amine]
3 | < 100 nM | ≤ 1000 nM | CCC[C@H](N)c1cccc(-c2cc(OC(F)(F)F)c3cnn(-c4cccc(CO)n4)c3c2)n1 [Example 523, (S)-(6-(6-(6-(1-aminobutyl)pyridin-2-yl)-4-(trifluoromethoxy)-1H-indazol-1-yl)pyridin-2-yl)methanol]
4 | < 100 nM | ≤ 1000 nM | CCC[C@H](N)c1cccc(-c2cc(OCCCOC)c3cnn(-c4cccc(CO)n4)c3c2)n1 [Example 456, (S)-(6-(6-(6-(1-aminobutyl)pyridin-2-yl)-4-(3-methoxypropoxy)-1H-indazol-1-yl)pyridin-2-yl)methanol]
5 | < 100 nM | ≤ 1000 nM | CCC[C@H](N)c1cccc(-c2cc(C3=CCN(C(C)=O)CC3)c3cnn(-c4cccc(CO)n4)c3c2)n1 [Example 488, (S)-1-(4-(6-(6-(1-aminobutyl)pyridin-2-yl)-1-(6-(hydroxymethyl)pyridin-2-yl)-1H-indazol-4-yl)-5,6-dihydropyridin-1(2H)-yl)ethanone]
6 | < 100 nM | 1000 to 10000 nM | COCC(N)c1cccc(-c2ccc3cnn(-c4cccc(CO)n4)c3c2)n1 (stereo not drawn) [Example 543, (6-(6-(6-(1-amino-2-methoxyethyl)pyridin-2-yl)-1H-indazol-1-yl)pyridin-2-yl)methanol]
7 | < 100 nM | ≤ 1000 nM | CCOc1cc(-c2cccc([C@@H](N)CC)n2)cc2c1cnn2-c1cncc(CO)n1 [Example 500, (S)-(6-(6-(6-(1-aminopropyl)pyridin-2-yl)-4-ethoxy-1H-indazol-1-yl)pyrazin-2-yl)methanol]
8 | < 100 nM | ≤ 1000 nM | CCC[C@H](N)c1cccc(-c2cc(C(F)F)c3cnn(-c4cccc(CO)n4)c3c2)n1 [Example 491, (S)-(6-(6-(6-(1-aminobutyl)pyridin-2-yl)-4-(difluoromethyl)-1H-indazol-1-yl)pyridin-2-yl)methanol]
9 | 100 to 1000 nM | 1000 to 10000 nM | CC(N)CNC(=O)c1cc(-c2cccc([C@H](C)N)n2)cc2c1cnn2-c1cccc(CO)n1 (stereo partly drawn) [Example 548, 6-(6-((S)-1-aminoethyl)pyridin-2-yl)-N-(2-aminopropyl)-1-(6-(hydroxymethyl)pyridin-2-yl)-1H-indazole-4-carboxamide]
10 | < 100 nM | ≤ 1000 nM | COc1cc(-c2cccc([C@@H](N)CCC(F)(F)F)n2)cc2c1cnn2-c1cccc(CO)n1 [Example 502, (S)-(6-(6-(6-(1-amino-4,4,4-trifluorobutyl)pyridin-2-yl)-4-methoxy-1H-indazol-1-yl)pyridin-2-yl)methanol]
11 | < 100 nM | 1000 to 10000 nM | CC[C@H](N)c1cccc(-c2ccc3cnn(-c4cccc(C(F)F)n4)c3c2)n1 [Example 539, (S)-1-(6-(1-(6-(difluoromethyl)pyridin-2-yl)-1H-indazol-6-yl)pyridin-2-yl)propan-1-amine]
12 | < 100 nM | ≤ 1000 nM | CCC[C@H](N)c1cccc(-c2cc(COC(F)F)c3cnn(-c4cccc(CO)n4)c3c2)n1 [Example 497, (S)-(6-(6-(6-(1-aminobutyl)pyridin-2-yl)-4-((difluoromethoxy)methyl)-1H-indazol-1-yl)pyridin-2-yl)methanol]
13 | < 100 nM | ≤ 1000 nM | CC[C@H](N)c1cccc(-c2ccc3cnn(-c4nccc(C(F)F)n4)c3c2)n1 [Example 512, (S)-1-(6-(1-(4-(difluoromethyl)pyrimidin-2-yl)-1H-indazol-6-yl)pyridin-2-yl)propan-1-amine]

Second part, the molecule before the results:

Row | Structure (SMILES) | IC50 (IRAK4) | EC50 (IL-6 in A549 cells)
14 | NC(c1cccc(-c2ccc3cnn(-c4cccc(CO)n4)c3c2)n1)C1COC1 (stereo not drawn) [Example 446, (6-(6-(6-(amino(oxetan-3-yl)methyl)pyridin-2-yl)-1H-indazol-1-yl)pyridin-2-yl)methanol] | < 100 nM | ≤ 1000 nM
15 | CC[C@@H](F)[C@H](N)c1cccc(-c2cc(OCCOC)c3cnn(-c4cccc(CO)n4)c3c2)n1 [Example 453, (6-(6-(6-((1R,2R)-1-amino-2-fluorobutyl)pyridin-2-yl)-4-(2-methoxyethoxy)-1H-indazol-1-yl)pyridin-2-yl)methanol] | < 100 nM | ≤ 1000 nM
16 | CCC[C@H](N)c1cccc(-c2cc(N3CCC(O)C3)c3cnn(-c4cccc(CO)n4)c3c2)n1 (stereo partly drawn) [Example 325, 1-(6-(6-((S)-1-aminobutyl)pyridin-2-yl)-1-(6-(hydroxymethyl)pyridin-2-yl)-1H-indazol-4-yl)pyrrolidin-3-ol] | < 100 nM | ≤ 1000 nM
17 | C[C@H](N)c1cccc(-c2cc(-c3nc(C(F)(F)F)co3)c3cnn(-c4cccc(CO)n4)c3c2)n1 [Example 374, (S)-(6-(6-(6-(1-aminoethyl)pyridin-2-yl)-4-(4-(trifluoromethyl)oxazol-2-yl)-1H-indazol-1-yl)pyridin-2-yl)methanol] | < 100 nM | ≤ 1000 nM
18 | CCC[C@H](N)c1cccc(-c2cc(N3CCC(C(=O)O)C3)c3cnn(-c4cccc(CO)n4)c3c2)n1 (stereo partly drawn) [Example 341, 1-(6-(6-((S)-1-aminobutyl)pyridin-2-yl)-1-(6-(hydroxymethyl)pyridin-2-yl)-1H-indazol-4-yl)pyrrolidine-3-carboxylic acid] | < 100 nM | ≤ 1000 nM
19 | C[C@H](N)c1cccc(-c2cc(-c3cnn(C)c3)c3cnn(-c4cccc(CO)n4)c3c2)n1 [Example 367, (S)-(6-(6-(6-(1-aminoethyl)pyridin-2-yl)-4-(1-methyl-1H-pyrazol-4-yl)-1H-indazol-1-yl)pyridin-2-yl)methanol] | < 100 nM | ≤ 1000 nM
20 | CCC[C@H](N)c1cccc(-c2cc(N3CCC(F)(F)CC3)c3cnn(-c4cccc(CO)n4)c3c2)n1 [Example 346, (S)-(6-(6-(6-(1-aminobutyl)pyridin-2-yl)-4-(4,4-difluoropiperidin-1-yl)-1H-indazol-1-yl)pyridin-2-yl)methanol] | < 100 nM | ≤ 1000 nM
21 | C[C@H](N)c1ccnc(-c2ccc3cnn(-c4cccc(CO)n4)c3c2)n1 [Example 411, (S)-(6-(6-(4-(1-aminoethyl)pyrimidin-2-yl)-1H-indazol-1-yl)pyridin-2-yl)methanol] | < 100 nM | ≤ 1000 nM
22 | CCC[C@H](N)c1cccc(-c2cc(OC)c3cnn(-c4cccc(CO)n4)c3c2)n1 [Example 463, (S)-(6-(6-(6-(1-aminobutyl)pyridin-2-yl)-4-methoxy-1H-indazol-1-yl)pyridin-2-yl)methanol] | < 100 nM | ≤ 1000 nM
23 | CCOc1cc(-c2cccc([C@@H](N)[C@H](CC)OC)n2)cc2c1cnn2-c1cccc(CO)n1 [Example 444, (6-(6-(6-((1R,2S)-1-amino-2-methoxybutyl)pyridin-2-yl)-4-ethoxy-1H-indazol-1-yl)pyridin-2-yl)methanol] | < 100 nM | 1000 to 10000 nM
24 | CCC[C@H](N)c1cccc(-c2cc(N3CC(CO)(CCl)C3)c3cnn(-c4cccc(CO)n4)c3c2)n1 [Example 332, (S)-(1-(6-(6-(1-aminobutyl)pyridin-2-yl)-1-(6-(hydroxymethyl)pyridin-2-yl)-1H-indazol-4-yl)-3-(chloromethyl)azetidin-3-yl)methanol] | < 100 nM | ≤ 1000 nM
25 | CCC[C@H](N)c1cccc(-c2cc(N3CCS(=O)(=O)CC3)c3cnn(-c4cccc(CO)n4)c3c2)n1 [Example 337, (S)-4-(6-(6-(1-aminobutyl)pyridin-2-yl)-1-(6-(hydroxymethyl)pyridin-2-yl)-1H-indazol-4-yl)thiomorpholine 1,1-dioxide] | < 100 nM | ≤ 1000 nM
26 | CCOc1cc(-c2cccc([C@@H](N)CC(C)(F)F)n2)cc2c1cnn2-c1cccc(CO)n1 [Example 438, (S)-(6-(6-(6-(1-amino-3,3-difluorobutyl)pyridin-2-yl)-4-ethoxy-1H-indazol-1-yl)pyridin-2-yl)methanol] | < 100 nM | ≤ 1000 nM
27 | CCC[C@H](N)c1cccc(-c2cc(N3CCC(O)CC3)c3cnn(-c4cccc(CO)n4)c3c2)n1 [Example 329, (S)-1-(6-(6-(1-aminobutyl)pyridin-2-yl)-1-(6-(hydroxymethyl)pyridin-2-yl)-1H-indazol-4-yl)piperidin-4-ol] | < 100 nM | ≤ 1000 nM
28 | C[C@H](N)c1cccc(-c2cc(-c3nc(C(F)(F)F)cs3)c3cnn(-c4cccc(CO)n4)c3c2)n1 [Example 378, (S)-(6-(6-(6-(1-aminoethyl)pyridin-2-yl)-4-(4-(trifluoromethyl)thiazol-2-yl)-1H-indazol-1-yl)pyridin-2-yl)methanol] | < 100 nM | 1000 to 10000 nM
29 | C[C@H](N)c1cccc(-c2cc(-n3cncn3)c3cnn(-c4cccc(CO)n4)c3c2)n1 [Example 355, (S)-(6-(6-(6-(1-aminoethyl)pyridin-2-yl)-4-(1H-1,2,4-triazol-1-yl)-1H-indazol-1-yl)pyridin-2-yl)methanol] | < 100 nM | ≤ 1000 nM
30 | CCC[C@H](N)c1cccc(-c2ccc3cnn(-c4cccc([C@@H](O)C(F)(F)F)n4)c3c2)n1 [Example 451, (R)-1-(6-(6-(6-((S)-1-aminobutyl)pyridin-2-yl)-1H-indazol-1-yl)pyridin-2-yl)-2,2,2-trifluoroethanol] | < 100 nM | ≤ 1000 nM
